# Experiments:
# Type in all cases: in vivo
# [1] = system: Surinam grass (Brachiaria decumbens); assay: Test B postemergence; conditions: 13 to 15 days
# Summary of the method: (§1)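 Pre: seeded pots sprayed, chemical in non-phytotoxic solvent/surfactant mix. Post: plants 2–18 cm, 1–4 leaf, same formulation. Greenhouse 13–15 d; visual % control vs untreated, 0–100 scale.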
# [2] = system: barnyardgrass (Echinochloa crus-galli); assay: Test B postemergence; conditions: 13 to 15 days
# Summary of the method: as §1
# [3] = system: blackgrass (Alopecurus myosuroides); assay: Test B postemergence; conditions: 13 to 15 days
# Summary of the method: as §1
# corn (Zea mays) [4] = assay: Test B postemergence; conditions: 13 to 15 days
# Summary of the method: as §1
# [5] = system: giant foxtail (Setaria faberii); assay: Test B postemergence; conditions: 13 to 15 days
# Summary of the method: as §1
# [6] = system: morning glory (Ipomoea hederacea); assay: Test B postemergence; conditions: 13 to 15 days
# Summary of the method: as §1
# [7] = system: pigweed (Amaranthus retroflexus); assay: Test B postemergence; conditions: 13 to 15 days
# Summary of the method: as §1
# [8] = system: velvetleaf (Abutilon theophrasti); assay: Test B postemergence; conditions: 13 to 15 days
# Summary of the method: as §1
# [9] = system: wheat (Triticum aestivum); assay: Test B postemergence; conditions: 13 to 15 days
# Summary of the method: as §1
# [10] = system: Surinam grass (Brachiaria decumbens); assay: Test B preemergence; conditions: scale 0 to 100, 0 no effect, 100 complete control
# Summary of the method: as §1
# [11] = system: barnyardgrass (Echinochloa crus-galli); assay: Test B preemergence; conditions: scale 0 to 100, 0 no effect, 100 complete control
# Summary of the method: as §1
# [12] = system: cocklebur (Xanthium strumarium); assay: Test B preemergence; conditions: scale 0 to 100, 0 no effect, 100 complete control
# Summary of the method: as §1
# corn (Zea mays) [13] = assay: Test B preemergence; conditions: scale 0 to 100, 0 no effect, 100 complete control
# Summary of the method: as §1
# [14] = system: crabgrass (Digitaria sanguinalis); assay: Test B preemergence; conditions: scale 0 to 100, 0 no effect, 100 complete control
# Summary of the method: as §1
# [15] = system: giant foxtail (Setaria faberii); assay: Test B preemergence; conditions: scale 0 to 100, 0 no effect, 100 complete control
# Summary of the method: as §1
# [16] = system: morning glory (Ipomoea hederacea); assay: Test B preemergence; conditions: scale 0 to 100, 0 no effect, 100 complete control
# Summary of the method: as §1
# [17] = system: pigweed (Amaranthus retroflexus); assay: Test B preemergence; conditions: scale 0 to 100, 0 no effect, 100 complete control
# Summary of the method: as §1
# rice (Oryza saliva) [18] = assay: Test B preemergence; conditions: scale 0 to 100, 0 no effect, 100 complete control
# Summary of the method: as §1
# [19] = system: velvetleaf (Abutilon theophrasti); assay: Test B preemergence; conditions: scale 0 to 100, 0 no effect, 100 complete control
# Summary of the method: as §1
# [20] = system: barnyardgrass (Echinochloa crus-galli); assay: Test C flooded paddy test; conditions: for Barnyardgrass plant response rating: Flooded Paddy, scale 0 to 100, 0 no effect, 100 complete control; for Plant response rating, Barnyardgrass / Plant response rating (scale 0 to 100), Barnyardgrass: flooded paddy test; for Plant response rating, Barnyardgrass: scale 0 to 100 (0 no effect, 100 complete control)
# Summary of the method: (§2)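 Flooded paddy, 2-leaf stage at treatment. Readout: visual % control vs untreated, 0–100, at 12–14 d in greenhouse.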
# [21] = system: duck salad (Heteranthera limosa); assay: Test C flooded paddy test; conditions: for Ducksalad plant response rating: Flooded Paddy, scale 0 to 100, 0 no effect, 100 complete control; for Plant response rating, Ducksalad / Plant response rating (scale 0 to 100), Ducksalad: flooded paddy test; for Plant response rating, Ducksalad: scale 0 to 100 (0 no effect, 100 complete control)
# Summary of the method: as §2
# rice (Oryza saliva) [22] = assay: Test C flooded paddy test; conditions: for Rice plant response rating: Flooded Paddy, scale 0 to 100, 0 no effect, 100 complete control; for Plant response rating, Rice / Plant response rating (scale 0 to 100), Rice: flooded paddy test; for Plant response rating, Rice: scale 0 to 100 (0 no effect, 100 complete control)
# Summary of the method: as §2
# [23] = system: smallflower flatsedge (Cyperus difformis); assay: Test C flooded paddy test; conditions: for Flatsedge plant response rating: Flooded Paddy, scale 0 to 100, 0 no effect, 100 complete control; for Plant response rating, Flatsedge / Plant response rating (scale 0 to 100), Flatsedge: flooded paddy test; for Plant response rating, Flatsedge: scale 0 to 100 (0 no effect, 100 complete control)
# Summary of the method: as §2
# Sunflower = assay: Test C preemergence; conditions: Rate 125 g/ha, scale 0 to 100, 0 no effect, 100 complete control
# [24] = system: lambsquarters (Chenopodium album); assay: Test B preemergence; conditions: scale 0 to 100, 0 no effect, 100 complete control
# Summary of the method: as §1
# [25] = Rate 125 g/ha, scale 0 (no effect) to 100 (complete control)
# [26] = Rate 500 g/ha, scale 0 to 100, 0 is no effect, 100 is complete control
# [27] = Rate 16 g/ha, visually evaluated after 12 to 14 days, 0 = no effect, 100 = complete control
# [28] = under head Rate 16 g/ha, (own rate not given), after 12 to 14 days
compound,measurement,setting,value
CCC(CC)c1ccn(C2SCN(c3cccc(C(F)(F)F)c3)C2=O)n1 (stereo not shown) [Compound 21],"Plant response rating, Surinam grass",[1]; [25],0
same,"Plant response rating, Surinam grass",[1]; [26],0
same,"Plant response rating, Barnyardgrass",[2]; [25],90
same,"Plant response rating, Barnyardgrass",[2]; [26],100
same,"Plant response rating, Blackgrass",[3]; [25],0
same,"Plant response rating, Blackgrass",[3]; [26],0
same,"Plant response rating, Corn",corn (Zea mays) [4]; [25],0
same,"Plant response rating, Corn",corn (Zea mays) [4]; [26],0
same,"Plant response rating, Foxtail, Giant",[5]; [25],20
same,"Plant response rating, Foxtail, Giant",[5]; [26],60
same,"Plant response rating, Morningglory",[6]; [25],70
same,"Plant response rating, Morningglory",[6]; [26],80
same,"Plant response rating, Pigweed",[7]; [25],70
same,"Plant response rating, Pigweed",[7]; [26],90
same,"Plant response rating, Velvetleaf",[8]; [25],20
same,"Plant response rating, Velvetleaf",[8]; [26],60
same,"Plant response rating, Wheat",[9]; [25],0
same,"Plant response rating, Wheat",[9]; [26],0
same,"Plant response rating, Surinam grass","[10]; Preemergence, Rate 500 g/ha",20
same,"Plant response rating, Surinam grass","[10]; preemergence, Rate 125 g/ha",20
same,"Plant response rating, Barnyardgrass","[11]; Preemergence, Rate 500 g/ha",100
same,"Plant response rating, Barnyardgrass","[11]; preemergence, Rate 125 g/ha",60
same,"Plant response rating, Cocklebur","[12]; Preemergence, Rate 500 g/ha",0
same,"Plant response rating, Corn","corn (Zea mays) [13]; Preemergence, Rate 500 g/ha",0
same,"Plant response rating, Corn","corn (Zea mays) [13]; preemergence, Rate 125 g/ha",0
same,"Plant response rating, Crabgrass","[14]; Preemergence, Rate 500 g/ha",100
same,"Plant response rating, Crabgrass","[14]; preemergence, Rate 125 g/ha",100
same,"Plant response rating, Foxtail, Giant","[15]; Preemergence, Rate 500 g/ha",100
same,"Plant response rating, Foxtail, Giant","[15]; preemergence, Rate 125 g/ha",70
same,"Plant response rating, Morningglory","[16]; Preemergence, Rate 500 g/ha",100
same,"Plant response rating, Morningglory","[16]; preemergence, Rate 125 g/ha",90
same,"Plant response rating, Pigweed","[17]; Preemergence, Rate 500 g/ha",90
same,"Plant response rating, Pigweed","[17]; preemergence, Rate 125 g/ha",0
same,"Plant response rating, Rice","rice (Oryza saliva) [18]; Preemergence, Rate 500 g/ha",0
same,"Plant response rating, Rice","rice (Oryza saliva) [18]; preemergence, Rate 125 g/ha",0
same,"Plant response rating, Velvetleaf","[19]; Preemergence, Rate 500 g/ha",0
same,"Plant response rating, Velvetleaf","[19]; preemergence, Rate 125 g/ha",0
same,Barnyardgrass plant response rating,[20]; Rate 250 g/ha,50
same,Barnyardgrass plant response rating,[20]; Rate 500 g/ha,100
same,"Plant response rating, Barnyardgrass",[20]; Rate 62 g/ha,40
same,"Plant response rating, Barnyardgrass",[20]; Rate 125 g/ha,50
same,Ducksalad plant response rating,[21]; Rate 250 g/ha,90
same,Ducksalad plant response rating,[21]; Rate 500 g/ha,100
same,"Plant response rating, Ducksalad",[21]; Rate 62 g/ha,80
same,"Plant response rating, Ducksalad",[21]; Rate 125 g/ha,90
same,Rice plant response rating,rice (Oryza saliva) [22]; Rate 250 g/ha,70
same,Rice plant response rating,rice (Oryza saliva) [22]; Rate 500 g/ha,70
same,"Plant response rating, Rice",rice (Oryza saliva) [22]; Rate 62 g/ha,0
same,"Plant response rating, Rice",rice (Oryza saliva) [22]; Rate 125 g/ha,20
same,Flatsedge plant response rating,[23]; Rate 250 g/ha,90
same,Flatsedge plant response rating,[23]; Rate 500 g/ha,100
same,"Plant response rating, Flatsedge",[23]; Rate 62 g/ha,80
same,"Plant response rating, Flatsedge",[23]; Rate 125 g/ha,90
same,"Plant response rating, Sunflower",Sunflower,70
CCC(C)c1ccn(C2OCN(c3cccc(C(F)(F)F)c3)C2=O)n1 (stereo not shown) [Compound 24],"Plant response rating, Surinam grass",[1]; [25],0
same,"Plant response rating, Surinam grass",[1]; [26],50
same,"Plant response rating, Barnyardgrass",[2]; [25],70
same,"Plant response rating, Barnyardgrass",[2]; [26],100
same,"Plant response rating, Blackgrass",[3]; [25],0
same,"Plant response rating, Blackgrass",[3]; [26],0
same,"Plant response rating, Corn",corn (Zea mays) [4]; [25],0
same,"Plant response rating, Corn",corn (Zea mays) [4]; [26],50
same,"Plant response rating, Foxtail, Giant",[5]; [25],20
same,"Plant response rating, Foxtail, Giant",[5]; [26],80
same,"Plant response rating, Morningglory",[6]; [25],0
same,"Plant response rating, Morningglory",[6]; [26],40
same,"Plant response rating, Pigweed",[7]; [25],80
same,"Plant response rating, Pigweed",[7]; [26],100
same,"Plant response rating, Velvetleaf",[8]; [25],0
same,"Plant response rating, Velvetleaf",[8]; [26],0
same,"Plant response rating, Wheat",[9]; [25],0
same,"Plant response rating, Wheat",[9]; [26],0
same,"Plant response rating, Surinam grass","[10]; Preemergence, Rate 500 g/ha",80
same,"Plant response rating, Surinam grass","[10]; preemergence, Rate 125 g/ha",20
same,"Plant response rating, Barnyardgrass","[11]; Preemergence, Rate 500 g/ha",100
same,"Plant response rating, Barnyardgrass","[11]; preemergence, Rate 125 g/ha",20
same,"Plant response rating, Cocklebur","[12]; Preemergence, Rate 500 g/ha",0
same,"Plant response rating, Cocklebur","[12]; preemergence, Rate 125 g/ha",0
same,"Plant response rating, Corn","corn (Zea mays) [13]; Preemergence, Rate 500 g/ha",20
same,"Plant response rating, Corn","corn (Zea mays) [13]; preemergence, Rate 125 g/ha",0
same,"Plant response rating, Crabgrass","[14]; Preemergence, Rate 500 g/ha",100
same,"Plant response rating, Crabgrass","[14]; preemergence, Rate 125 g/ha",100
same,"Plant response rating, Foxtail, Giant","[15]; Preemergence, Rate 500 g/ha",100
same,"Plant response rating, Foxtail, Giant","[15]; preemergence, Rate 125 g/ha",90
same,"Plant response rating, Lambsquarters","[24]; Preemergence, Rate 500 g/ha",100
same,"Plant response rating, Lambsquarters","[24]; preemergence, Rate 125 g/ha",100
same,"Plant response rating, Morningglory","[16]; Preemergence, Rate 500 g/ha",0
same,"Plant response rating, Morningglory","[16]; preemergence, Rate 125 g/ha",0
same,"Plant response rating, Pigweed","[17]; Preemergence, Rate 500 g/ha",100
same,"Plant response rating, Pigweed","[17]; preemergence, Rate 125 g/ha",100
same,"Plant response rating, Rice","rice (Oryza saliva) [18]; Preemergence, Rate 500 g/ha",0
same,"Plant response rating, Rice","rice (Oryza saliva) [18]; preemergence, Rate 125 g/ha",0
same,"Plant response rating, Velvetleaf","[19]; Preemergence, Rate 500 g/ha",0
same,"Plant response rating, Velvetleaf","[19]; preemergence, Rate 125 g/ha",0
same,Barnyardgrass plant response rating,[20]; Rate 250 g/ha,100
same,Barnyardgrass plant response rating,[20]; Rate 500 g/ha,100
same,"Plant response rating, Barnyardgrass",[20]; Rate 62 g/ha,100
same,"Plant response rating, Barnyardgrass",[20]; Rate 125 g/ha,100
same,"Plant response rating (scale 0 to 100), Barnyardgrass",[20]; [27],100
same,"Plant response rating (scale 0 to 100), Barnyardgrass",[20]; [28],80
same,Ducksalad plant response rating,[21]; Rate 250 g/ha,100
same,Ducksalad plant response rating,[21]; Rate 500 g/ha,100
same,"Plant response rating, Ducksalad",[21]; Rate 62 g/ha,60
same,"Plant response rating, Ducksalad",[21]; Rate 125 g/ha,100
same,"Plant response rating (scale 0 to 100), Ducksalad",[21]; [27],50
same,"Plant response rating (scale 0 to 100), Ducksalad",[21]; [28],50
same,Rice plant response rating,rice (Oryza saliva) [22]; Rate 250 g/ha,30
same,Rice plant response rating,rice (Oryza saliva) [22]; Rate 500 g/ha,60
same,"Plant response rating, Rice",rice (Oryza saliva) [22]; Rate 62 g/ha,0
same,"Plant response rating, Rice",rice (Oryza saliva) [22]; Rate 125 g/ha,20
same,"Plant response rating (scale 0 to 100), Rice",rice (Oryza saliva) [22]; [27],20
same,"Plant response rating (scale 0 to 100), Rice",rice (Oryza saliva) [22]; [28],20
same,Flatsedge plant response rating,[23]; Rate 250 g/ha,100
same,Flatsedge plant response rating,[23]; Rate 500 g/ha,100
same,"Plant response rating, Flatsedge",[23]; Rate 62 g/ha,100
same,"Plant response rating, Flatsedge",[23]; Rate 125 g/ha,100
same,"Plant response rating (scale 0 to 100), Flatsedge",[23]; [27],100
same,"Plant response rating (scale 0 to 100), Flatsedge",[23]; [28],100

# — patent US7138361B2, “Herbicidal heterocycles” (E. I. du Pont de Nemours and Company, priority 2000, dated 2006)
